The results in this text go back to patent publication US12306178B2 (priority 2022, dated 2025).

The subject of experiment [1] is DON-ScFV-AP bifunctional fusion protein. The format is binding.
Experiment [2] has as its system AFB1-ScFV-AP bifunctional fusion protein. The class given is binding.

On to `CC(=O)O[C@@H]1C[C@]2(C)[C@@]3(CO)[C@H](O)C(=O)C(C)=C[C@H]3O[C@H]1[C@@]21CO1` [3-ADON, 3-acetyldeoxynivalenol], for which the IC50 is given as 2.3 ppb in experiment [1] and more than 100.1 ppm in experiment [2]. Also, the “cross-reaction (in words)” value in experiment [1] is “obvious cross-reaction”.

Turning to `CC(=O)OC[C@]12[C@H](O)C(=O)C(C)=C[C@H]1O[C@@H]1[C@H](O)C[C@@]2(C)[C@]12CO2` [15-ADON, 15-acetyldeoxynivalenol], the IC50 in experiment [1] is 64 ppb; in experiment [2], more than 100.4 ppm. On the same counts, the results for `CC1=C[C@H]2O[C@@H]3[C@H](O)C[C@](C)([C@@]2(CO)[C@H](O)C1=O)[C@]31CO1` [DON, Deoxynivalenol] are 2.4 ppb and more than 10 ppm. Take `CC1=C[C@H]2O[C@@H]3[C@H](O[C@@H]4O[C@H](CO)[C@@H](O)[C@H](O)[C@H]4O)C[C@](C)([C@@]2(CO)[C@H](O)C1=O)[C@]31CO1` [DON-3G, deoxynivalenol-3-glucoside]: the IC50 in experiment [2] was more than 50 ppm. On the same count and under the same terms, for `CCCC[C@@H](C)[C@@H](OC(=O)C[C@@H](CC(=O)O)C(=O)O)[C@H](C[C@@H](C)C[C@H](O)CCCC[C@@H](O)C[C@H](O)[C@H](C)N)OC(=O)C[C@@H](CC(=O)O)C(=O)O` [FB1, fumonisin B1] the value was more than 28.6 ppm; for `CCCC[C@@H](C)[C@@H](OC(=O)C[C@@H](CC(=O)O)C(=O)O)[C@H](C[C@@H](C)CCCCCC[C@@H](O)C[C@H](O)[C@H](C)N)OC(=O)C[C@@H](CC(=O)O)C(=O)O` [FB2, fumonisin B2], more than 28.6 ppm; for `CCCC[C@@H](C)[C@@H](OC(=O)C[C@@H](CC(=O)O)C(=O)O)[C@H](C[C@@H](C)C[C@H](O)CCCCCC[C@H](O)[C@H](C)N)OC(=O)C[C@@H](CC(=O)O)C(=O)O` [FB3, fumonisin B3], more than 28.6 ppm. For `CC1=C[C@H]2O[C@@H]3[C@H](O)[C@@H](O)[C@](C)([C@@]2(CO)[C@H](O)C1=O)[C@]31CO1` [NIV, nivalenol], the values for the IC50 in experiment [1] and in experiment [2] were 610 ppb and more than 100.4 ppm, respectively. On the same counts, the results for `C[C@@H]1Cc2c(Cl)cc(C(=O)N[C@@H](Cc3ccccc3)C(=O)O)c(O)c2C(=O)O1` [OTA, ochratoxin A] are more than 1.9 ppm and more than 1.9 ppm.

With `C[C@H]1CCCC(=O)CCC/C=C/c2cc(O)cc(O)c2C(=O)O1` [ZEN, zearalenone], the IC50 in experiment [1] and in experiment [2] was more than 20 ppm throughout. For T-2 toxin, the IC50 in experiment [1] and in experiment [2] was more than 100 ppm each time. With aflatoxin B1 [AFB1], the IC50 is on record as more than 2 ppm in experiment [1] and 0.5 ppb in experiment [2]. In experiment [2], aflatoxin B2 [AFB2] registered an IC50 of 1.9 ppb.

aflatoxin G1 [AFG1] displayed an IC50 in experiment [2] of 2.1 ppb. The same measure, in the same setting: with aflatoxin G2 [AFG2] the figure was 8.1 ppb.
